Experimental data: PubChem BioAssay (NCI)
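Cultured in 96-well plates, cells were exposed to test compound for 48 hours across five concentrations. TGI denotes the concentration required for complete inhibition of growth.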

Columns and labels:
Assay in all cases: NCI anticancer screen, dose series, 48 h
DU-145 prostate = system: DU-145 prostate
SK-MEL-2 melanoma = system: SK-MEL-2 melanoma
UACC-257 melanoma = system: UACC-257 melanoma
TK-10 renal = system: TK-10 renal
ACHN renal = system: ACHN renal
SR leukemia = system: SR leukemia
CAKI-1 renal = system: CAKI-1 renal
RPMI-8226 leukemia = system: RPMI-8226 leukemia
OVCAR-5 ovarian = system: OVCAR-5 ovarian
SNB-19 CNS = system: SNB-19 CNS
HCT-116 colon = system: HCT-116 colon
MALME-3M melanoma = system: MALME-3M melanoma
HCC-2998 colon = system: HCC-2998 colon
SF-539 CNS = system: SF-539 CNS
HL-60(TB) leukemia = system: HL-60(TB) leukemia
SK-OV-3 ovarian = system: SK-OV-3 ovarian
UO-31 renal = system: UO-31 renal
HS 578T breast = system: HS 578T breast
MOLT-4 leukemia = system: MOLT-4 leukemia
SNB-75 CNS = system: SNB-75 CNS
EKVX NSCLC = system: EKVX NSCLC
SF-268 CNS = system: SF-268 CNS
T-47D breast = system: T-47D breast
MDA-MB-435 = system: MDA-MB-435
NCI-H460 lung = system: NCI-H460 lung
PC-3 prostate = system: PC-3 prostate
HOP-62 NSCLC = system: HOP-62 NSCLC
NCI-H522 lung = system: NCI-H522 lung
NCI-H23 lung = system: NCI-H23 lung
CCRF-CEM leukemia = system: CCRF-CEM leukemia
NCI/ADR-RES ovarian = system: NCI/ADR-RES ovarian
A498 renal = system: A498 renal
RXF 393 renal = system: RXF 393 renal
SK-MEL-5 melanoma = system: SK-MEL-5 melanoma
SF-295 CNS = system: SF-295 CNS
HCT-15 colon = system: HCT-15 colon
HT29 colon = system: HT29 colon
SK-MEL-28 melanoma = system: SK-MEL-28 melanoma
COLO 205 colon = system: COLO 205 colon
A549 NSCLC = system: A549 NSCLC
OVCAR-3 ovarian = system: OVCAR-3 ovarian
M14 melanoma = system: M14 melanoma
K-562 leukemia = system: K-562 leukemia
U251 CNS = system: U251 CNS
SW-620 colon = system: SW-620 colon
UACC-62 melanoma = system: UACC-62 melanoma
SN12C renal = system: SN12C renal
HOP-92 NSCLC = system: HOP-92 NSCLC
NCI-H226 lung = system: NCI-H226 lung
IGROV1 ovarian = system: IGROV1 ovarian
MDA-MB-231 breast = system: MDA-MB-231 breast
786-0 renal = system: 786-0 renal
LOX IMVI melanoma = system: LOX IMVI melanoma
KM12 colon = system: KM12 colon
OVCAR-4 ovarian = system: OVCAR-4 ovarian

SMILES: CCCCC(=O)OC[n+]1ccc2c(C)c3[nH]c4ccc(OC)cc4c3c(C)c2c1
- TGI (DU-145 prostate): 4.82 µM
- TGI (SK-MEL-2 melanoma): > 100 µM
- TGI (UACC-257 melanoma): > 34.4 µM
- TGI (TK-10 renal): 15.2 µM
- TGI (ACHN renal): 3.84 µM
- TGI (SR leukemia): 1040 nM
- TGI (CAKI-1 renal): 4.64 µM
- TGI (RPMI-8226 leukemia): 983 nM
- TGI (OVCAR-5 ovarian): 5.61 µM
- TGI (SNB-19 CNS): 4.35 µM
- TGI (HCT-116 colon): 1370 nM
- TGI (MALME-3M melanoma): > 33.3 µM
- TGI (HCC-2998 colon): 1800 nM
- TGI (SF-539 CNS): 1920 nM
- TGI (HL-60(TB) leukemia): > 100 µM
- TGI (SK-OV-3 ovarian): 2930 nM
- TGI (UO-31 renal): 4.08 µM
- TGI (HS 578T breast): 2730 nM
- TGI (MOLT-4 leukemia): 1130 nM
- TGI (SNB-75 CNS): 27.2 µM
- TGI (EKVX NSCLC): 3.6 µM
- TGI (SF-268 CNS): > 100 µM
- TGI (T-47D breast): 14.2 µM

SMILES: Clc1ccc(-c2nn3c(C45CC6CC(CC(C6)C4)C5)nnc3s2)cc1
- TGI (DU-145 prostate): > 100 µM
- TGI (MDA-MB-435): > 100 µM
- TGI (SK-MEL-2 melanoma): > 100 µM
- TGI (NCI-H460 lung): > 100 µM
- TGI (PC-3 prostate): > 100 µM
- TGI (HOP-62 NSCLC): > 100 µM
- TGI (NCI-H522 lung): > 100 µM
- TGI (NCI-H23 lung): > 100 µM
- TGI (CCRF-CEM leukemia): > 100 µM
- TGI (NCI/ADR-RES ovarian): > 100 µM
- TGI (A498 renal): > 100 µM
- TGI (TK-10 renal): > 100 µM
- TGI (ACHN renal): > 100 µM
- TGI (RXF 393 renal): > 100 µM
- TGI (SR leukemia): > 100000 nM
- TGI (CAKI-1 renal): > 100 µM
- TGI (RPMI-8226 leukemia): > 100000 nM
- TGI (SK-MEL-5 melanoma): > 100 µM
- TGI (SF-295 CNS): > 100 µM
- TGI (HCT-15 colon): > 100 µM
- TGI (OVCAR-5 ovarian): > 100 µM
- TGI (HT29 colon): > 100 µM
- TGI (SK-MEL-28 melanoma): > 100 µM
- TGI (SNB-19 CNS): > 100 µM
- TGI (COLO 205 colon): > 100 µM
- TGI (HCT-116 colon): > 100000 nM
- TGI (MALME-3M melanoma): > 100 µM
- TGI (A549 NSCLC): > 100 µM
- TGI (HCC-2998 colon): > 100000 nM
- TGI (OVCAR-3 ovarian): > 100 µM
- TGI (M14 melanoma): > 100 µM
- TGI (K-562 leukemia): > 100 µM
- TGI (SF-539 CNS): > 100000 nM
- TGI (U251 CNS): > 100 µM
- TGI (SW-620 colon): > 100 µM
- TGI (HL-60(TB) leukemia): > 100 µM
- TGI (SK-OV-3 ovarian): > 100000 nM
- TGI (UACC-62 melanoma): > 100 µM
- TGI (SN12C renal): > 100 µM
- TGI (HOP-92 NSCLC): > 100 µM
- TGI (NCI-H226 lung): > 100 µM
- TGI (IGROV1 ovarian): > 100 µM
- TGI (UO-31 renal): > 100 µM
- TGI (HS 578T breast): > 100000 nM
- TGI (MDA-MB-231 breast): > 100 µM
- TGI (MOLT-4 leukemia): > 100000 nM
- TGI (786-0 renal): > 100 µM
- TGI (LOX IMVI melanoma): > 100 µM
- TGI (SNB-75 CNS): > 100 µM
- TGI (EKVX NSCLC): > 100 µM
- TGI (SF-268 CNS): > 100 µM
- TGI (KM12 colon): > 100 µM
- TGI (T-47D breast): > 100 µM
- TGI (OVCAR-4 ovarian): > 100 µM
